Data on 2 compounds can be found in patent US20240327364A1, “THERAPEUTIC TARGETING OF GPR68 TO INDUCE FERROPTOSIS” (University Of Maryland, Baltimore, priority 2023, published 2024).

Marks after values point to notes of the source that are not given here.

The target of data set [1] is T1, RIPK4 (Homo sapiens, UniProt P57078).
T1 construct: purchased DiscoveRx (Fremont, CA)
The data set can be described thus: KinomeScan. The format is binding. The settings on record: read-out: % Control.

Data set [2] concerns the target T2, GPR14 (Homo sapiens, UniProt Q9UKP6).
T2 construct: host or cells: Chem-1 cells expressing Gα15
The data set can be described thus: GPCR Profiler. The format is cell-based. The settings on record: 12.5 uM.

Data set [3] addresses CDKL1 (Homo sapiens, UniProt Q00532). The data set can be described thus: KinomeScan. The settings on record: read-out: % Control. It is filed as binding.
Data set [4] deals with T3, TAOK2 (Homo sapiens, UniProt Q9UL54).
T3 construct: purchased DiscoveRx (Fremont, CA)
The data set can be described thus: KinomeScan. It is filed as binding. The settings on record: read-out: % Control.

Data set [5] addresses T4, IRAK1 (Homo sapiens, UniProt P51617).
T4 construct: purchased DiscoveRx (Fremont, CA)
The data set can be described thus: KinomeScan. The format is binding. The settings on record: read-out: % Control.

In data set [6] the target is T5, RIPK2 (Homo sapiens, UniProt O43353).
T5 construct: purchased DiscoveRx (Fremont, CA)
The data set can be described thus: KinomeScan. The format is binding. The settings on record: read-out: % Control.

Data set [7] addresses CSNK1E (Homo sapiens, UniProt P49674). The data set can be described thus: KinomeScan. It is filed as binding. The settings on record: read-out: % Control.
The target of data set [8] is T6, LCK (Homo sapiens, UniProt P06239).
T6 construct: purchased DiscoveRx
T6 sequence (P06239 whole entry): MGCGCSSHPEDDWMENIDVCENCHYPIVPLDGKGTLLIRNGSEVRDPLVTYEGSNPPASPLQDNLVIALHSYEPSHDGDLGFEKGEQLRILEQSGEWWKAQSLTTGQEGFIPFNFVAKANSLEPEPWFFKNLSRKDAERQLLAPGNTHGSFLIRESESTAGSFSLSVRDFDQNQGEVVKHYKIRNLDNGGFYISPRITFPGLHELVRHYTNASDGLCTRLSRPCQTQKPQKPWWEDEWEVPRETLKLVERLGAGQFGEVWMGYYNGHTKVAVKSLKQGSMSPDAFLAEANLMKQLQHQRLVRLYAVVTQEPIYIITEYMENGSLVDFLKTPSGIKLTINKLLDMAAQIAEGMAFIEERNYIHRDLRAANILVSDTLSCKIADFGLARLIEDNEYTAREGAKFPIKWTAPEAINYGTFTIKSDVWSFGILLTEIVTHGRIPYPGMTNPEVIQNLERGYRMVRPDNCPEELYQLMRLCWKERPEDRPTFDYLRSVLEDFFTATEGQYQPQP
The data set can be described thus: KinomeScan. It is filed as binding. The settings on record: read-out: % Control.

The target in data set [9] is T7, S1P5 (Homo sapiens, UniProt Q9H228).
T7 construct: host or cells: Chem-1 cells with Gα15
T7 sequence (Q9H228 whole entry, species assumed): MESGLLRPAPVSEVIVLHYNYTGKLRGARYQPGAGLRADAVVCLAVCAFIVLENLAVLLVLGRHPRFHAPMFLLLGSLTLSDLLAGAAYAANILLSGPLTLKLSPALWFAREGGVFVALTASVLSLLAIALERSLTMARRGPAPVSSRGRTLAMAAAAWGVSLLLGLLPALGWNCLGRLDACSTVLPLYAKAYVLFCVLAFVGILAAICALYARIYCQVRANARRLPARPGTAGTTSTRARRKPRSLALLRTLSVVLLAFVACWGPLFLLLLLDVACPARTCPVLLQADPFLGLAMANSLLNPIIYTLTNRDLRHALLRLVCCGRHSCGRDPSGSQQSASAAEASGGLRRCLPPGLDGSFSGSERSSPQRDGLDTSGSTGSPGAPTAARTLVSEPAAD
The data set can be described thus: GPCR Profiler. The format is cell-based.

The target of data set [10] is T8, TIE1 (Homo sapiens, UniProt P35590).
T8 construct: purchased DiscoveRx (Fremont, CA)
T8 sequence (P35590 22-1138): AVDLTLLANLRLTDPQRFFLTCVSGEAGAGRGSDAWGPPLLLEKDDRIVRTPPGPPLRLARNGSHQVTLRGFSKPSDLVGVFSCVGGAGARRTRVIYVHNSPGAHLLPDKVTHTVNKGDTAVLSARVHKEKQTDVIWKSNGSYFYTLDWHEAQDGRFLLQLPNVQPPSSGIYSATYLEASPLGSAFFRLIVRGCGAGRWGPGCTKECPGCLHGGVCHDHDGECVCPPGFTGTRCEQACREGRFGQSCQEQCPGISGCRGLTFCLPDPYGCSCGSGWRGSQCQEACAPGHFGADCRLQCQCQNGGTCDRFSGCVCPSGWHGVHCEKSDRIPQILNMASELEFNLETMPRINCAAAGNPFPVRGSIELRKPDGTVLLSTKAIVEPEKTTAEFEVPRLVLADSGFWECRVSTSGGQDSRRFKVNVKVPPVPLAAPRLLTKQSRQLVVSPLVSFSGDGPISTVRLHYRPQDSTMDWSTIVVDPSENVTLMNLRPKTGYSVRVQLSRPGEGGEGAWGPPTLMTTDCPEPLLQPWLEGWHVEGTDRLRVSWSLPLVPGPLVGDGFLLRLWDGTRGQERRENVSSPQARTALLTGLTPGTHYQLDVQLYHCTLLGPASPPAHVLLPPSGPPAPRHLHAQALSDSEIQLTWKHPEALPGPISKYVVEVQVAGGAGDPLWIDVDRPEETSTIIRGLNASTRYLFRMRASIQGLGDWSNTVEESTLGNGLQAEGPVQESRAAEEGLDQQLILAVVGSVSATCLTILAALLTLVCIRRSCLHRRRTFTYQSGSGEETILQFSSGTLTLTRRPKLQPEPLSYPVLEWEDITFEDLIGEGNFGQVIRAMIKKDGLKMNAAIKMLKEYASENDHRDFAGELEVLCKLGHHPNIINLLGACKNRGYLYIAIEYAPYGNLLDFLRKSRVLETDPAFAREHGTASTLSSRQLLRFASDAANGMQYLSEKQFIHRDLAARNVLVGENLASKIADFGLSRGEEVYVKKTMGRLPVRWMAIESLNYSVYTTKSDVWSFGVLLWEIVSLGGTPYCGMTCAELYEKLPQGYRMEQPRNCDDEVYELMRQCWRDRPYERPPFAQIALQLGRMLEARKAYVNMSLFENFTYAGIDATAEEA
The data set can be described thus: KinomeScan. It is filed as binding. The settings on record: read-out: % Control.

Data set [11] has as its target T9, YES (Homo sapiens, UniProt P07947).
T9 construct: purchased DiscoveRx
The data set can be described thus: KinomeScan. The format is binding. The settings on record: read-out: % Control.

Data set [12] deals with T10, MYLK2 (Homo sapiens, UniProt Q9H1R3).
T10 construct: purchased DiscoveRx
The data set can be described thus: KinomeScan. The format is binding. The settings on record: read-out: % Control.

The target of data set [13] is T11, MST2 (Homo sapiens, UniProt Q13188).
T11 construct: purchased DiscoveRx
The data set can be described thus: KinomeScan. The settings on record: read-out: % Control. The format is binding.

The target in data set [14] is T12, CXCR6 (Homo sapiens, UniProt O00574).
T12 construct: host or cells: Chem-1 cells with Gα15
T12 sequence (O00574 whole entry, species assumed): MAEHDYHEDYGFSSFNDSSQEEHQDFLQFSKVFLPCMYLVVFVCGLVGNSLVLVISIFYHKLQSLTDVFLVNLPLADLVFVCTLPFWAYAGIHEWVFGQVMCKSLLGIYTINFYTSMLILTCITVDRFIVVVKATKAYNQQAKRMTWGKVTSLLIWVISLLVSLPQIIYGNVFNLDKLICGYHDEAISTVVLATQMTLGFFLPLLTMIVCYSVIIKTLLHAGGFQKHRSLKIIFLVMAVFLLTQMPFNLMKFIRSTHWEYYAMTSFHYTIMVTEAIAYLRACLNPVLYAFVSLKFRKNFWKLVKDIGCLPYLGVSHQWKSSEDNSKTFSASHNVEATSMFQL
The data set can be described thus: GPCR Profiler. It is filed as cell-based.

The target in data set [15] is T13, INSRR (Homo sapiens, UniProt P14616).
T13 construct: purchased DiscoveRx (Fremont, CA)
T13 sequence (P14616 27-1297): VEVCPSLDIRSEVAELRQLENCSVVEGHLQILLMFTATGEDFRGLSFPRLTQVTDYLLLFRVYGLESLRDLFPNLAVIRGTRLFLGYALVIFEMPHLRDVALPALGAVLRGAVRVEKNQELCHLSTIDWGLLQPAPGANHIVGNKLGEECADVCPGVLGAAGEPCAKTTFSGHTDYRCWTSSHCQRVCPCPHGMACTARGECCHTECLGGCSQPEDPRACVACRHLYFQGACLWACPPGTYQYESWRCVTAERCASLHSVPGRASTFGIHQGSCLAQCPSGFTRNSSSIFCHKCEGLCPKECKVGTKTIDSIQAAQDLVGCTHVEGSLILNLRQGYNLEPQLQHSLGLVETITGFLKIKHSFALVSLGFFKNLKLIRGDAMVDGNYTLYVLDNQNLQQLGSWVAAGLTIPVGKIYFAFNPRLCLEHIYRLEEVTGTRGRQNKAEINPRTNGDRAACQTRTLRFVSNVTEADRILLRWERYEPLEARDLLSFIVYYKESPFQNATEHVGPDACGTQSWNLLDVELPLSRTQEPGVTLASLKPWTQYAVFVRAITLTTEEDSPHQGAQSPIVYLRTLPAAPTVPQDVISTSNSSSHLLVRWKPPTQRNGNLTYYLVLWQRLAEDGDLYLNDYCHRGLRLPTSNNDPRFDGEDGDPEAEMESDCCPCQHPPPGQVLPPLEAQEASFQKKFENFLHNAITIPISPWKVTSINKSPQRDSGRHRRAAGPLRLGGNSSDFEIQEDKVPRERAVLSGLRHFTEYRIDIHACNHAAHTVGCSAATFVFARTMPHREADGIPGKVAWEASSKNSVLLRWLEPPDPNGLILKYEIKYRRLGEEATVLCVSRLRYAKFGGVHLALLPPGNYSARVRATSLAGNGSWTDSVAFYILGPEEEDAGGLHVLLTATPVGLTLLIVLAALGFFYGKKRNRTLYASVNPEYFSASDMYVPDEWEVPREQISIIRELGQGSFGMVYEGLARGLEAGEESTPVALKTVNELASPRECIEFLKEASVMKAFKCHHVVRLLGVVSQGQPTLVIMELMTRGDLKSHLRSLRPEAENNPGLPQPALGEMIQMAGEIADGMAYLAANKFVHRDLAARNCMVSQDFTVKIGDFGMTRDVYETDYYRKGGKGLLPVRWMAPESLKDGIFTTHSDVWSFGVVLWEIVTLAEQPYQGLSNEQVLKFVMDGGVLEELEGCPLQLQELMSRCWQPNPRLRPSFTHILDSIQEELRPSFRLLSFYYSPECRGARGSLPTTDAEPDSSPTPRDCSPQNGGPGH
The data set can be described thus: KinomeScan. It is filed as binding. The settings on record: read-out: % Control.

Data set [16] addresses T14, EP3 (Homo sapiens, UniProt P43115).
T14 construct: host or cells: Chem-1 cells expressing Gα15
The data set can be described thus: GPCR Profiler. It is filed as cell-based.

In data set [17] the target is CLK2 (Homo sapiens, UniProt P49760). The data set can be described thus: KinomeScan. The format is binding. The settings on record: read-out: % Control.
Chain of CLK2 (P49760 whole entry): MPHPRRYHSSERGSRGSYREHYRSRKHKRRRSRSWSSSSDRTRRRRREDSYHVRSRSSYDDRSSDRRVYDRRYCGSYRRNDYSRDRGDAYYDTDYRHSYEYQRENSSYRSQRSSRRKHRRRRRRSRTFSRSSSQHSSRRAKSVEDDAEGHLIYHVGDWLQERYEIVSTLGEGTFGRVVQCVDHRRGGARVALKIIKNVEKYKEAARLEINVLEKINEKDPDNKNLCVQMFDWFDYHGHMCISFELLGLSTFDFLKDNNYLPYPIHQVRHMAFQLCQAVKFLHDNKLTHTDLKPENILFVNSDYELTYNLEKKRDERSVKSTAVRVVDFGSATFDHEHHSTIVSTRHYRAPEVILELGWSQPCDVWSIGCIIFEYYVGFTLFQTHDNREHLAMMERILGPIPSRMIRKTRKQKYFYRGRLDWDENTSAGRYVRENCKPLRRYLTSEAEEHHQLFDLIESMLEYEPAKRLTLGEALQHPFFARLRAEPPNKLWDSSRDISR
The target in data set [18] is T15, ULK2 (Homo sapiens, UniProt Q8IYT8).
T15 construct: purchased DiscoveRx
The data set can be described thus: KinomeScan. It is filed as binding. The settings on record: read-out: % Control.

Data set [19] has as its system HT-29. The data set can be described thus: Cell Titer-Glo viability, Colorectal adenocarcinoma. It is filed as cell-based. Set-up: key to Class: Very Sensitive (LC50<2 μM); Sensitive (LC50=2 to 10 μM); Mildly Sensitive (LC50>10 μM); Refractory (no killing at 10 μM). As to the method: (§1) OGM2 kills wide variety of cancer cell types. Cell sensitivity can be classified in to Very Sensitive (LC50<2 μM), Sensitive (LC50=2 to 10 μM), Mildly Sensitive (LC50>10 μM), and Refractory (no killing at 10 μM). The listed established cell were incubated with OGM2 at 2 μM or 10 μM for 72 hours under standard cell culture conditions, and relative cell number was assessed using Cell Titer-Glo Luminescent Cell Viability Assay (Promega™) following the manufacturer's instructions. Luminescence was determined using a Cytation 5 reader and Gen5 software package (BioTek™).
(§2) Cancer cells, which are very sensitive to killing by OGM2 (LCs <2 μM), with reported mRNA expression of GPR68 and the related proton sensing receptor GPR4. LC50's (concentrations causing 50% lethality) were determined using CellTiter-Glo (Promega™, G7570). Cells were plated in 12-well plates (CELLTREAT Scientific Products, 229112) in 1 ml of DMEM with high glucose, GlutaMAX, HEPES, or RPMI 1640 with Penicillin-Streptomycin (ThermoFisher™, 10564029, 11875119 and 15140122) and 10% FBS. Cells were incubated overnight at 37° C. in 5% CO2. Then 1 mL of fresh media was added with DMSO, OGM, or positive control (Erastin; APExBIO Technology, LLC, B1524) and cells incubated for 3 days. On the third day, all media was removed, cells were rinsed with 1×PBS, PBS was removed, and 200 μL of 1× Passive Lysis Buffer (Promega™, E1941) was added to each well. […]. Subsequently, 20 μL of lysate was added to 100 μL CellTiter-Glo™ reagent on a LUMITRAC 200 plate (Greiner™ bio-one, 82050-726). Plates were briefly spun down and read on a GloMax-Multi Detection System (Promega™).
(§3) The cells listed in the tables above were incubated with OGM2 at 2 μM or 10 μM for 72 hours under standard cell culture conditions, and relative cell number was assessed using Cell Titer-Glo Luminescent Cell Viability Assay (Promega™) following the manufacturer's instructions. Luminescence was determined using a Cytation 5 reader and Gen5 software package (BioTek™). RNA expression of GPR68 and GPR4 in the corresponding cancer cell lines are listed, according to the publicly available The Human Protein Atlas version 22.0 and Ensembl version 103.38 (see proteinatlas.org). The consensus normalized expression value (“nTPM”=normalize transcript per million) was calculated as the maximum nTPM value for each gene in the two data sources.
On the technique in general: In ATP-based viability assays light output follows the ATP content of the culture.

Data set [20] relates to MOLM-14. The data set can be described thus: Cell Titer-Glo viability, Acute monocytic leukemia. The format is cell-based. As to the method: as §1, §2, §3
Data set [21] relates to THP-1. The data set can be described thus: Cell Titer-Glo viability, Acute monocytic leukemia. The format is cell-based. The settings on record: 72 hours. As to the method:
as §1, §2, §3

Data set [22] concerns A2058. The data set can be described thus: Scratch assay. The format is cell-based, human. The settings on record: 20 hours, OGM2 5 uM.
Data set [23] has as its system zebrafish embryos. The data set can be described thus: Acridine orange stain of zebrafish embryos (cell death). The settings on record: in vivo.
Data set [24] relates to A549. The data set can be described thus: Cell Titer-Glo viability, Lung Adenocarcinoma. The format is cell-based. The settings on record: 72 hours. As to the method: as §1
as §2, with “Subsequently, 20 μL of lysate was added to 100 μL CellTiter-Glo™ reagent on a LUMITRAC 200 plate (Greiner™ bio-one, 82050-726).” left out
The cells listed in the tables above were incubated with OGM2 at 2 μM or 10 μM for 72 hours under standard cell culture conditions, and relative cell number was assessed using Cell Titer-Glo Luminescent Cell Viability Assay (Promega™) following the manufacturer's instructions. Luminescence was determined using a Cytation 5 reader and Gen5 software package (BioTek™). […] The consensus normalized expression value (“nTPM”=normalize transcript per million) was calculated as the maximum nTPM value for each gene in the two data sources.

T14 sequence (P43115 whole entry): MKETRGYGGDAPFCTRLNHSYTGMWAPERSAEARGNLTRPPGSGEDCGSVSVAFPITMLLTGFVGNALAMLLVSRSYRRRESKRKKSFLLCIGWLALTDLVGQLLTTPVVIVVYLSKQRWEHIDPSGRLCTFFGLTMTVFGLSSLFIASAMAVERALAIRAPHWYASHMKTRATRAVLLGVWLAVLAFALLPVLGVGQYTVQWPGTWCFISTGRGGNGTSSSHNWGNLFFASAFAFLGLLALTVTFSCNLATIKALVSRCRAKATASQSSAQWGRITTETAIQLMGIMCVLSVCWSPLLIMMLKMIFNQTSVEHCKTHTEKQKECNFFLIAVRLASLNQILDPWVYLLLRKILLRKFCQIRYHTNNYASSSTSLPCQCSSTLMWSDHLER
T2 sequence (Q9UKP6 whole entry): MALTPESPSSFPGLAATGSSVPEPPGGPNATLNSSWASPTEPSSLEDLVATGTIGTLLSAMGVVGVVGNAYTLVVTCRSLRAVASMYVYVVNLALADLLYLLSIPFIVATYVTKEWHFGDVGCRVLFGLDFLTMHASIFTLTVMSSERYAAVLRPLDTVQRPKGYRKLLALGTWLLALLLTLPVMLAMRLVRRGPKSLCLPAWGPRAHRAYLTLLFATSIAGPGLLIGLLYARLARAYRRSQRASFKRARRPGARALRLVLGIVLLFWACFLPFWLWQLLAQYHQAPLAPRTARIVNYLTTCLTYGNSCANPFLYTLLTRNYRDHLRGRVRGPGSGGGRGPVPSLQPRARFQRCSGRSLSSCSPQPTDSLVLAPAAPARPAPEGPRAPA

Regarding `CCc1ccc2c(c1)C1(NN=C(c3cccc4ccccc34)S1)C(=O)N2` (stereo not shown) [OGM1, 5-ethyl-5′-naphthalen-1-ylspiro[1H-indole-3,2′-3H-1,3,4-thiadiazole]-2-one], the remaining binding at 10 µM is 81% in [1]; 88% in [3]; 81% in [4]; 100% in data set [5]; 100% in data set [6]; 91% in [7]. Also, the remaining binding at 10 µM was 100% in data set [8]; 94% in data set [10]; 100% in data set [11]; 100% in data set [12]; 69% in data set [13]; 100% in data set [15]. Moreover, the remaining binding at 10 µM was 61% in data set [17] and 100% in [18]. The Agonism is 16.8* in data set [2], 1.8 in [9] (12.5 uM), 0 in [14] (12.5 uM) and 0.4 in data set [16] (12.5 uM). The Antagonism in [9] (10 uM) is given as 0.9; in data set [14] (10 uM) it was −14; in [16] (10 uM), 6.3.
As to `CCc1ccc2c(c1)C1(NN=C(c3ccccc3)S1)C(=O)N2` (stereo not shown) [OGM2], the Class entry in data set [19] is on record as “Refractory”; in data set [20], “Sensitive (Sensitive (LC50=2 to 10 μM))”. Moreover, the “% Survival 2 μM OGM” value is given as 102.8% in data set [19] (72 hours), 65.3% in data set [20] (72 hours), 33.0% in [21] and 33.6% in data set [24]. The “% Survival 10 μM OGM” value amounted to 103.9% in data set [19] (72 hours), 15.3% in [20] (72 hours), 9.4% in data set [21] and 18.0% in data set [24]. Moreover, in data set [19] (72 hours), the “LC50 (μM)” value is listed as “No”. The CC50 in data set [20] (Homo sapiens, MOLM-14, 72 hours, read-out: LC50 (the source's name)) is 2000 to 10000 nM; in data set [21] (Homo sapiens, THP-1, read-out: LC50 (the source's name)) it was below 2000 nM; in [24] (Homo sapiens, A549, read-out: LC50 (the source's name)), below 2000 nM. In data set [22], the migration entry is “inhibited migration”. Further, in data set [23], the excess cell death result is reported as “did not induce excess cell death in zebrafish larvae”.
